Test results: article PMC11096368, “Transcriptomic signature, bioactivity and safety of a non-hepatotoxic analgesic generating AM404 in the midbrain PAG region” (Scientific Reports, 2024)
Entries after “also recorded” stand apart in the source; their conditions may differ.

Assays:
male CD1 mice = assay: Baker yeast-induced hyperthermia antipyresis assay; assay type: in vivo; conditions: 75 mg/kg per os, n = 10
Experimental: Antipyresis experiments were carried out with n = 60 CD-1 male mice weighing between 45 and 50 g. All mice were kept in a 12-h day/12-h night cycle with free access to food and water ad libitum. After habituating and acclimating the mice for a week, each mouse was briefly anesthetized for 1 min with 1% isoflurane and implanted subcutaneously a transmitter probe that records core body temperature – Implantable Programmable Temperature Transponder (IPTT-300) by Bio Medic Data Systems (BMDS), DE, USA. The mice were allowed to recover for at least one week from the surgery before any recordings were made and observed in their home cages prior to pyrogen challenge for inducing fever. Temperatures were recorded using the BMDS DAS-8027-IUS data reading system.
15% yeast, 0.1 mL/kg (MilliporeSigma, Billerica, MA, USA) was used to induce fever. All animals used in this assay were male CD1 mice, which were fasted overnight (15 h) before the start of the assay.
Mice received either yeast in 0.9% saline (sterile) (vehicle) or just 0.9% saline as an ip injection. […] All mice that didn’t show a significant change in body temperature or appeared sick post-pyrogen challenge were excluded (n = 5) from subsequent drug administrations.
All drugs and vehicle (10% DMSO: 10% labrasol :80% PEG400) were administered by oral gavage, PO administration. Each dosing volume was ~ 0.3–0.4 mL per mouse. […]

hERG current = target: T1, hERG current (Homo sapiens, UniProt Q12809); assay: Cardiotoxicity assay (hERG); assay type: cell-based; conditions: human embryonic kidney cells
T1 construct: expressed in transfected cells; host or cells: human embryonic kidney cells
T1 sequence (Q12809 whole entry): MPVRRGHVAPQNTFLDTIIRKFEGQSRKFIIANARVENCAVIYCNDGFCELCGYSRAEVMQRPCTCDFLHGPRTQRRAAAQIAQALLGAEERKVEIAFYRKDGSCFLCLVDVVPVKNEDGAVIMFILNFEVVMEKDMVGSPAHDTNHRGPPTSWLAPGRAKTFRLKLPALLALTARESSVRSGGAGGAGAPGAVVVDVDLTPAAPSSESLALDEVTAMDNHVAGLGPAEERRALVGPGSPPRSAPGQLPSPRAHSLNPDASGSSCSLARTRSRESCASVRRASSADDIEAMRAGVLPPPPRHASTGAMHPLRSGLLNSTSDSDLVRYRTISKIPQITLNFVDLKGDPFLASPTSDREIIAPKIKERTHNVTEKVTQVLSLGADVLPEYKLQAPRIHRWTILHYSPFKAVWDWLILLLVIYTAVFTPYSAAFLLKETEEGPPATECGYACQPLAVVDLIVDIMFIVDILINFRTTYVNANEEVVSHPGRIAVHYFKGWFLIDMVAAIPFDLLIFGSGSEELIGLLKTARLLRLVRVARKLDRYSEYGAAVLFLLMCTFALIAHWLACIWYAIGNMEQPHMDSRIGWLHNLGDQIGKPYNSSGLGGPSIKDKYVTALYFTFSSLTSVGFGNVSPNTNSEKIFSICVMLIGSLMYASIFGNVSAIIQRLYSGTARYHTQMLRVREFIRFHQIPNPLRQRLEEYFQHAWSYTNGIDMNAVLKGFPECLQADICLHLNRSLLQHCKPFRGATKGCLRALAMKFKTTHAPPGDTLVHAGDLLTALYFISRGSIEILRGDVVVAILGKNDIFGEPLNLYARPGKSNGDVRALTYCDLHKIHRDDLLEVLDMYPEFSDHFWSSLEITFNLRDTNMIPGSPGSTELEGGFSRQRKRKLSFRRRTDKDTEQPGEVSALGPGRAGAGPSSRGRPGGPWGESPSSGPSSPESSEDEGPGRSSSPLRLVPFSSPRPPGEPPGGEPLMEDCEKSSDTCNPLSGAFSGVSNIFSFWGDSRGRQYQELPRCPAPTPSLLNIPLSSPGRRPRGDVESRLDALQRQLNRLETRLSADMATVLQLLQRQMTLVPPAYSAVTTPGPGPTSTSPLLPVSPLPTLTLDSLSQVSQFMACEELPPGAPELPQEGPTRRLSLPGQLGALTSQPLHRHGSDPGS
Experimental: The effects of SRP-001 on hERG current amplitude at physiologic temperatures were evaluated over a nominal concentration range of 0.1 μM to […]. A vehicle group (10% DMSO) was included in the study for comparison, and dofetilide (10 nM) was used as a reference substance. The vehicle and positive controls indicated appropriate sensitivity of the test systems. […] Next, the potential acute effects of oral SRP-001 on cardiovascular function in conscious telemetered beagle dogs was done using a Latin Square design; 4 male naïve beagle dogs each received vehicle (10% DMSO: 10% labrasol: 80% PEG400) and three doses (30, 90, and 150 mg/kg) of SRP-001 nanosuspension by oral gavage. […] A single dose was administered on the day of dosing, and a washout period of seven days was allowed between doses. One-min means of hemodynamic parameters, as well as ECG parameters and body temperature, were measured for a period of at least 24 h. One-min tracings of the ECGs were obtained at 15 min prior to dosing and at 30 min, 1, 2, 4, 8, 12, and 24 h post-dose. Qualitative evaluation of the ECGs was done by a board-certified veterinary cardiologist.

male Sprague–Dawley rats = assay: Neuropharmacological profile, modified Irwin/Functional Observational Battery (GLP); assay type: in vivo; conditions: for Body temperature versus vehicle: 1 h post-dose
Experimental: Any potential neuropharmacological effects of orally administered SRP-001 in rats were assessed in three groups of eight male Sprague–Dawley rats. Each was orally administered SRP-001 at a single dose of 220, 440, or 660 mg/kg. Vehicle (10% labrasol: 10% DMSO: 80% PEG400) was administered to an additional group of eight rats. The dose volume was 10 mL/kg. […] All observations were made at ± 5 min for the observations through 1 h post-dose and ± 15 min for the later observations. Body temperature was measured 1 h following dose administration.

[1] = Stability of API and oral nanosuspension; assay type: physicochemical
Experimental: The drug therapeutic candidate is manufactured in a two-step process (Latitude Pharmaceuticals, Inc., San Diego, CA, USA). First, SRP-001 is jet milled. Second, the milled API is dispersed in a solution comprising 1% hydroxypropyl cellulose (1% HPC) and sterile water for injection and subjected to wet milling. The target particle size is approximately D90 0.15 μm. […] An oral nanoparticle suspension containing 100 mg/mL SRP-001 in aqueous 1% HPC preserved with 0.1% sodium benzoate was manufactured for use in nonclinical studies as Lot LPI2021028 and stored at 5 °C ± 3 °C. […] The same formulation as above was manufactured under cGMP for use in clinical studies as Lot LPI2021031 and stored at 5 °C ± 3 °C. […] This lot has been placed on stability at 5 °C, 25 °C/60%RH, and 40 °C/75%RH. Finally, an appearance-matched placebo consisting of 2% microcrystalline cellulose in aqueous 1% HPC preserved with 0.1% sodium benzoate and 0.05% EDTA disodium dihydrate was manufactured under cGMP for use in clinical studies. The above oral suspensions were manufactured by Latitude Pharmaceuticals Inc. (San Diego, CA, USA).

Row | SMILES | Antipyresis, yeast fever (core body temperature) (male CD1 mice) | Signal in in vitro hERG assay (hERG current) | Body temperature versus vehicle (male Sprague–Dawley rats; 220 or 440 mg/kg) | Body temperature versus vehicle (male Sprague–Dawley rats; high-dose group (660 mg/kg)) | Neuropharmacological or clinical signs (male Sprague–Dawley rats; oral, 220, 440, 660 mg/kg, through 24 h post-dose) | Stability of the API ([1]; 25 °C/60%RH) | Stability of the API ([1]; 40 °C/75%RH) [months]
1 | CCN(CC)C(=O)c1ccccc1S(=O)(=O)NCC(=O)Nc1ccc(O)cc1 [SRP-001, N,N-diethyl-2-[[2-(4-hydroxyanilino)-2-oxo-ethyl]sulfamoyl]benzamide] | subsequent reduction in core body temperature | absent relevant signal | not affected | significantly (p ≤ 0.05) lower; also recorded: lower body temperature; also recorded: Decreased body temp | No apparent neuropharmacological or clinical signs; also recorded: No apparent neuropharmacological effects | at least 9 months | ≥ 6
2 | CC(=O)Nc1ccc(O)cc1 [ApAP, acetaminophen, reference compound] | subsequent reduction in core body temperature |  |  |  |  |  | 
